Results as given in ChEMBL document CHEMBL1201862, “PubChem BioAssay data set” (2004).
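How tested: cells in 96-well plates exposed to compound for 48 hours at five concentrations. GI50 marks 50% less growth.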 The source made the active and inactive calls. No stated cut-off is given here; in the data, active = GI50 up to about 1.1 µM and inactive = higher.

Tests used:
Test in all cases: inhibition of tumour cell growth, NCI panel, 48 h
[1] = tested on: COLO 205
[2] = tested on: Hs-578T
[3] = tested on: KM12
[4] = tested on: NCI-H226
[5] = tested on: MDA-N
[6] = tested on: DU-145
[7] = tested on: HT-29
[8] = tested on: NCI-H522
[9] = tested on: CAKI-1
[10] = tested on: PC-3
[11] = tested on: HCT-15
[12] = tested on: TK-10
[13] = tested on: U-251
[14] = tested on: OVCAR-8
[15] = tested on: SNB-19
[16] = tested on: T47D
[17] = tested on: 786-0
[18] = tested on: SF-268
[19] = tested on: CCRF-CEM
[20] = tested on: OVCAR-4
[21] = tested on: SK-MEL-28
[22] = tested on: SK-MEL-2
[23] = tested on: MDA-MB-435
[24] = tested on: EKVX
[25] = tested on: HOP-62
[26] = tested on: HCT-116
[27] = tested on: OVCAR-3
[28] = tested on: SK-MEL-5
[29] = tested on: LOX IMVI
[30] = tested on: UACC-62
[31] = tested on: NCI/ADR-RES
[32] = tested on: HOP-92
[33] = tested on: IGROV-1
[34] = tested on: NCI-H23
[35] = tested on: HCC 2998
[36] = tested on: BT-549
[37] = tested on: Malme-3M
[38] = tested on: SW-620
[39] = tested on: NCI-H460
[40] = tested on: SNB-75
[41] = tested on: SN12C
[42] = tested on: UO-31
[43] = tested on: ACHN
[44] = tested on: MDA-MB-231
[45] = tested on: A498
[46] = tested on: UACC-257
[47] = tested on: OVCAR-5
[48] = tested on: SF-295
[49] = tested on: RXF 393
[50] = tested on: M14
[51] = tested on: A549
[52] = tested on: K562
[53] = tested on: SK-OV-3
[54] = tested on: MOLT-4
[55] = tested on: RPMI-8226
[56] = tested on: HL-60
[57] = tested on: SF-539
[58] = tested on: MCF7

Q: With O=c1c(C(c2ccc(O)cc2)c2c(O)oc3ccccc3c2=O)c(O)oc2ccccc12 as the compound, how does the GI50 [1] read?
A: 69.8 µM (inactive)

Q: And the GI50 [2]?
A: > 100 µM (inactive)

Q: What about the GI50 [3] of the same compound?
A: > 100 µM (inactive)

Q: What about the GI50 [4] of the same compound?
A: > 100 µM (inactive)

Q: What about the GI50 [5] of the same compound?
A: 45.2 µM (inactive)

Q: And the GI50 [6]?
A: > 100 µM (inactive)

Q: What about the GI50 [7] of the same compound?
A: 97.1 µM (inactive)

Q: And the GI50 [8]?
A: 22.5 µM (inactive)

Q: And the GI50 [9]?
A: 85.9 µM (inactive)

Q: What about the GI50 [10] of the same compound?
A: > 100 µM (inactive)

Q: And the GI50 [11]?
A: 36.6 µM

Q: What about the GI50 [12] of the same compound?
A: > 100 µM (inactive)

Q: What about the GI50 [13] of the same compound?
A: 34.9 µM (inactive)

Q: And the GI50 [14]?
A: 48.8 µM (inactive)

Q: What about the GI50 [15] of the same compound?
A: 71.8 µM (inactive)

Q: And the GI50 [16]?
A: > 100 µM (inactive)

Q: What about the GI50 [17] of the same compound?
A: 58.2 µM (inactive)

Q: What about the GI50 [18] of the same compound?
A: 16.2 µM (inactive)

Q: What about the GI50 [19] of the same compound?
A: 74.3 µM (inactive)

Q: What about the GI50 [20] of the same compound?
A: > 100 µM (inactive)

Q: What about the GI50 [21] of the same compound?
A: 55.5 µM (inactive)

Q: And the GI50 [22]?
A: > 100 µM (inactive)

Q: What about the GI50 [23] of the same compound?
A: 98.9 µM (inactive)

Q: What about the GI50 [24] of the same compound?
A: > 100 µM (inactive)

Q: And the GI50 [25]?
A: 96.8 µM (inactive)

Q: What about the GI50 [26] of the same compound?
A: > 100 µM (inactive)

Q: What about the GI50 [27] of the same compound?
A: 76.9 µM (inactive)

Q: What about the GI50 [28] of the same compound?
A: 83.8 µM (inactive)

Q: And the GI50 [29]?
A: 45.2 µM (inactive)

Q: What about the GI50 [30] of the same compound?
A: 79.1 µM (inactive)

Q: What about the GI50 [31] of the same compound?
A: > 100 µM (inactive)

Q: And the GI50 [32]?
A: 78.5 µM (inactive)

Q: What about the GI50 [33] of the same compound?
A: 66.2 µM (inactive)

Q: What about the GI50 [34] of the same compound?
A: > 100 µM (inactive)

Q: What about the GI50 [35] of the same compound?
A: 46.3 µM (inactive)

Q: What about the GI50 [36] of the same compound?
A: 59.8 µM (inactive)

Q: What about the GI50 [37] of the same compound?
A: 86.9 µM (inactive)

Q: And the GI50 [38]?
A: 44.5 µM (inactive)

Q: What about the GI50 [39] of the same compound?
A: > 100 µM (inactive)

Q: And the GI50 [40]?
A: 30.9 µM (inactive)

Q: What about the GI50 [41] of the same compound?
A: 56.8 µM (inactive)

Q: What about the GI50 [42] of the same compound?
A: > 100 µM (inactive)

Q: And the GI50 [43]?
A: > 100 µM (inactive)

Q: And the GI50 [44]?
A: 31.6 µM (inactive)

Q: What about the GI50 [45] of the same compound?
A: > 100 µM (inactive)

Q: What about the GI50 [46] of the same compound?
A: > 100 µM (inactive)

Q: Which results are given for Cc1cc(C)c(/N=N/c2c(O)c(S(=O)(=O)O)cc3cc(S(=O)(=O)O)ccc23)cc1C?
A: GI50 [1]: > 100 µM (inactive); GI50 [2]: > 100 µM (inactive); GI50 [3]: > 100 µM (inactive); GI50 [4]: > 100 µM (inactive); GI50 [5]: > 100 µM (inactive); GI50 [6]: > 100 µM (inactive); GI50 [7]: > 100 µM (inactive); GI50 [8]: > 100 µM (inactive); GI50 [9]: > 100 µM (inactive); GI50 [10]: > 100 µM (inactive); GI50 [11]: > 100 µM; GI50 [47]: > 100 µM (inactive); GI50 [12]: > 100 µM (inactive); GI50 [13]: > 100 µM (inactive); GI50 [48]: > 100 µM (inactive); GI50 [14]: > 100 µM (inactive); GI50 [15]: > 100 µM (inactive); GI50 [16]: > 100 µM (inactive); GI50 [17]: 48.9 µM (inactive); GI50 [18]: > 100 µM (inactive); GI50 [19]: > 100 µM (inactive); GI50 [20]: > 100 µM (inactive); GI50 [21]: > 100 µM (inactive); GI50 [22]: > 100 µM (inactive); GI50 [23]: > 100 µM (inactive); GI50 [24]: > 100 µM (inactive); GI50 [49]: > 100 µM (inactive); GI50 [25]: > 100 µM (inactive); GI50 [26]: > 100 µM (inactive); GI50 [27]: > 100 µM (inactive); GI50 [50]: > 100 µM (inactive); GI50 [51]: > 100 µM (inactive); GI50 [28]: > 100 µM (inactive); GI50 [29]: > 100 µM (inactive); GI50 [30]: > 100 µM (inactive); GI50 [31]: > 100 µM (inactive); GI50 [32]: > 100 µM (inactive); GI50 [52]: > 100 µM (inactive); GI50 [33]: > 100 µM (inactive); GI50 [53]: > 100 µM (inactive); GI50 [34]: > 100 µM (inactive); GI50 [36]: > 100 µM (inactive); GI50 [37]: > 100 µM (inactive); GI50 [38]: > 100 µM (inactive); GI50 [54]: > 100 µM (inactive); GI50 [40]: > 100 µM (inactive); GI50 [41]: > 100 µM (inactive); GI50 [42]: > 100 µM (inactive); GI50 [43]: > 100 µM (inactive); GI50 [44]: > 100 µM (inactive); GI50 [45]: > 100 µM (inactive); GI50 [46]: > 100 µM (inactive); GI50 [55]: > 100 µM (inactive)

Q: Which GI50 [1] does the source give for CCCCCCNC(=O)c1cc(NCc2cc(OC)ccc2OC)ccc1O here?
A: 19 µM (inactive)

Q: What about the GI50 [2] of the same compound?
A: 28 µM (inactive)

Q: What about the GI50 [3] of the same compound?
A: 24.8 µM (inactive)

Q: And the GI50 [4]?
A: 20 µM (inactive)

Q: And the GI50 [5]?
A: 18.9 µM (inactive)

Q: What about the GI50 [6] of the same compound?
A: 24.2 µM (inactive)

Q: And the GI50 [7]?
A: 31.3 µM (inactive)

Q: What about the GI50 [8] of the same compound?
A: 14.3 µM (inactive)

Q: And the GI50 [9]?
A: 27.2 µM (inactive)

Q: What about the GI50 [10] of the same compound?
A: 20.2 µM (inactive)

Q: And the GI50 [11]?
A: 21.1 µM

Q: And the GI50 [47]?
A: 51.4 µM (inactive)

Q: And the GI50 [12]?
A: 42.6 µM (inactive)

Q: And the GI50 [13]?
A: 17.9 µM (inactive)

Q: What about the GI50 [48] of the same compound?
A: 12 µM (inactive)

Q: And the GI50 [14]?
A: 20.7 µM (inactive)

Q: And the GI50 [15]?
A: 33 µM (inactive)

Q: And the GI50 [16]?
A: 13.5 µM (inactive)

Q: What about the GI50 [17] of the same compound?
A: 27.9 µM (inactive)

Q: What about the GI50 [56] of the same compound?
A: 14.4 µM (inactive)

Q: What about the GI50 [18] of the same compound?
A: 13.3 µM (inactive)

Q: And the GI50 [19]?
A: 20.5 µM (inactive)

Q: What about the GI50 [20] of the same compound?
A: 22.8 µM (inactive)

Q: What about the GI50 [21] of the same compound?
A: 31.8 µM (inactive)

Q: What about the GI50 [22] of the same compound?
A: 21.7 µM (inactive)

Q: And the GI50 [23]?
A: 18.9 µM (inactive)

Q: And the GI50 [24]?
A: 23.9 µM (inactive)

Q: And the GI50 [49]?
A: 18.7 µM (inactive)

Q: What about the GI50 [26] of the same compound?
A: 21.1 µM (inactive)

Q: What about the GI50 [27] of the same compound?
A: 0.865 µM (active)

Q: What about the GI50 [50] of the same compound?
A: 18.7 µM (inactive)

Q: What about the GI50 [51] of the same compound?
A: 29.6 µM (inactive)

Q: What about the GI50 [28] of the same compound?
A: 14.5 µM (inactive)

Q: And the GI50 [29]?
A: 16.6 µM (inactive)

Q: What about the GI50 [30] of the same compound?
A: 15 µM (inactive)

Q: And the GI50 [31]?
A: 16.9 µM (inactive)

Q: What about the GI50 [32] of the same compound?
A: 6.98 µM (inactive)

Q: And the GI50 [52]?
A: 14.8 µM (inactive)

Q: What about the GI50 [33] of the same compound?
A: 21.3 µM (inactive)

Q: What about the GI50 [53] of the same compound?
A: 13.1 µM (inactive)

Q: And the GI50 [34]?
A: 24.7 µM (inactive)

Q: What about the GI50 [35] of the same compound?
A: 26.6 µM (inactive)

Q: What about the GI50 [36] of the same compound?
A: 15.5 µM (inactive)

Q: And the GI50 [37]?
A: 22.5 µM (inactive)

Q: What about the GI50 [38] of the same compound?
A: 30.7 µM (inactive)

Q: And the GI50 [57]?
A: 18.5 µM (inactive)

Q: What about the GI50 [54] of the same compound?
A: 25.7 µM (inactive)

Q: What about the GI50 [39] of the same compound?
A: 24.7 µM (inactive)

Q: What about the GI50 [40] of the same compound?
A: 26.1 µM (inactive)

Q: What about the GI50 [58] of the same compound?
A: 22.1 µM (inactive)

Q: And the GI50 [41]?
A: 20.6 µM (inactive)

Q: And the GI50 [42]?
A: 17.7 µM (inactive)

Q: What about the GI50 [43] of the same compound?
A: 32.8 µM (inactive)

Q: What about the GI50 [44] of the same compound?
A: 18.7 µM (inactive)

Q: What about the GI50 [46] of the same compound?
A: 16.9 µM (inactive)

Q: And the GI50 [55]?
A: 12.2 µM (inactive)
